# Results reported in patent US9527842B2, “Inhibitors of human immunodeficiency virus replication” (priority 2013, dated 2016).
# pEC50: −log10 of the molar value.
# Test system: not given
# Test: not given
# Details: from C=CCOC1(C)CCN(c2c([C@H](OC(C)(C)C)C(=O)OC)c(C)cn3nc(-c4cccc(-c5c(O[C@@H](C)CC=C)ccc(C)c5F)c4)cc23)CC1; rcm bond; 20-membered ring; Hoveyda-Grubbs II; then H2, Pd/C; then NaOH; DCE; 2.0 mM; 80.0 °C; 4.0 h; 3 steps
row,SMILES,"ring closure, yield after HPLC [%]"
1,COC(=O)[C@@H](OC(C)(C)C)c1c(C)cn2nc3cc2c1N1CCC(C)(CC1)OCC=CC[C@H](C)Oc1ccc(C)c(F)c1-c1cccc-3c1,11

# Same assay, conditions: from C=CCOC1(C)CCN(c2c([C@H](OC(C)(C)C)C(=O)OC)c(C)cn3nc(-c4cccc(-c5cc(F)ccc5O[C@@H](C)CC=C)c4)cc23)CC1; rcm bond; 20-membered ring; Hoveyda-Grubbs II; then H2, Pd/C; then NaOH; DCE; 2.02 mM; 85.0 °C; 2.0 h; 3 steps
row,SMILES,"ring closure, yield after HPLC [%]"
1,COC(=O)[C@@H](OC(C)(C)C)c1c(C)cn2nc3cc2c1N1CCC(C)(CC1)OCC=CC[C@H](C)Oc1ccc(F)cc1-c1cccc-3c1,23.2

# Test system: recombinant NL-Rluc virus
# Test: Inhibition of HIV replication (NL-RLuc luciferase reporter virus in MT-2 cells)
# Assay type: cell-based
# Details: Human immunodeficiency virus 1, MT2, 120 h
row,SMILES,pEC50
1,"Cc1ccc2c(c1)-c1cccc(c1)-c1cc3c(c([C@H](OC(C)(C)C)C(=O)O)c(C)cn3n1)N1CCC(C)(CC1)OCCCCC[C@H](C)O2 [Example 30, (2S)-2-(tert-Butoxy)-2-[(22S)-4,17,22,29-tetramethyl-21,28-dioxa-1,6,35-triazahexacyclo[27.2.2.1^6,^9.1^10,^14.0^2,^7.0^15,^20]pentatriaconta-2,4,7,9 (35),10(34),11,13,15(20),16,18-decaen-3-yl]acetic acid]",7.08
2,"CCC[C@H](C)Oc1cccc(F)c1-c1cccc(-c2cc3c(N4CCC(C)(O)CC4)c([C@H](OC(C)(C)C)C(=O)O)c(C)cn3n2)c1 [Example 35, (2S)-2-(tert-Butoxy)-2-[2-(3-{2-fluoro-6-[(2S)-pentan-2-yloxy]phenyl}phenyl)-4-(4-hydroxy-4-methylpiperidin-1-yl)-6-methylpyrazolo[1,5-a]pyridin-5-yl]acetic acid]",6.22
3,"Cc1cn2nc3cc2c(c1[C@H](OC(C)(C)C)C(=O)O)N1CCC(C)(CC1)OC/C=C/COc1ccccc1Cc1cnc-3s1 [Example 27, (2S)-2-(tert-Butoxy)-2-[(23E)-4,27-dimethyl-21,26-dioxa-32-thia-1,6,11,33-tetraazahexacyclo[25.2.2.1^6,^9.1^10,^13.0^2,^7.0^15,^20]tritriaconta-2,4,7,9 (33),10,12,15(20),16,18,23-decaen-3-yl]acetic acid]",8.40
4,"Cc1cn2nc3cc2c(c1[C@H](OC(C)(C)C)C(=O)O)N1CCC(C)(CC1)OCCCC[C@H](C)Oc1cccc(F)c1-c1cccc-3c1 [Example 34, (2S)-2-(tert-Butoxy)-2-[(22S)-16-fluoro-4,22,28-trimethyl-21,27-dioxa-1,6,34-triazahexacyclo[26.2.2.1^6,^9.1^10,^14.0^2,^7.0^15,^20]tetratriaconta-2,4,7,9(34),10(33),11,13,15(20),16,18-decaen-3-yl]acetic acid]",7.85
5,"Cc1cn2nc3cc2c(c1[C@H](OC(C)(C)C)C(=O)O)N1CCC(C)(CC1)OCCCC[C@H](C)Oc1ccc(F)cc1-c1cccc-3c1 [Example 36, (2S)-2-(tert-Butoxy)-2-[(22S)-17-fluoro-4,22,28-trimethyl-21,27-dioxa-1,6,34-triazahexacyclo[26.2.2.1^6,^9.1^10,^14.0^2,^7.0^15,^20]tetratriaconta-2,4,7,9(34),10(33),11,13,15(20),16,18-decaen-3-yl]acetic acid]",7.30
6,"Cc1cn2nc3cc2c(c1[C@H](OC(C)(C)C)C(=O)O)N1CCC(C)(CC/C=C/COc2cc(F)ccc2CNC3=O)CC1 [Example 26, (2S)-2-(tert-Butoxy)-2-[(21E)-16-fluoro-4,25-dimethyl-10-oxo-19-oxa-1,6,11,30-tetraazapentacyclo[23.2.2.1^6,^9.0^2,^7.0^13,^18]triaconta-2,4,7,9(30),13(18),14,16,21-octaen-3-yl]acetic acid]",8.22
7,"Cc1ccc2c(c1)-c1cccc(c1)-c1cc3c(c([C@H](OC(C)(C)C)C(=O)O)c(C)cn3n1)N1CCC(C)(CC1)OCCC[C@H](C)CO2 (single isomer, unassigned) [Example 32]",6.75
8,"Cc1cn2nc3ccccc3c2c(-c2cc(F)c3c(c2C)CCCO3)c1[C@H](OC(C)(C)C)C(=O)O [Example 25, (2S)-2-(tert-Butoxy)-2-(10-(8-fluoro-5-methylchroman-6-yl)-8-methylpyrido[1,2-b]indazol-9-yl)acetic acid]",7.43
9,"Cc1ccc2c(c1)-c1cccc(c1)-c1cc3c(c([C@H](OC(C)(C)C)C(=O)O)c(C)cn3n1)N1CCC(C)(CC1)OCCCC[C@H](C)O2 [Example 29, (2S)-2-(tert-Butoxy)-21[(22S)-4,17,22,28-tetramethyl-21,27-dioxa-1,6,34-triazahexacyclo[26.2.2.1^6,^9.1^10,^14.0^2,^7.0^15,^20]tetratriaconta-2,4,7,9 (34),10(33),11,13,15(20),16,18-decaen-3-yl]acetic acid]",7.40
10,"Cc1ccc2c(c1)-c1cccc(c1)-c1cc3c(c([C@H](OC(C)(C)C)C(=O)O)c(C)cn3n1)N1CCC(C)(CC1)OCCC[C@@H](C)CO2 (single isomer, unassigned) [Example 33]",6.94
11,"Cc1ccc2c(c1F)-c1cccc(c1)-c1cc3c(c([C@H](OC(C)(C)C)C(=O)O)c(C)cn3n1)N1CCC(C)(CC1)OCCCC[C@@H](C)O2 [Example 40, (2S)-2-(tert-Butoxy)-2-[(22R)-16-fluoro-4,17,22,28-tetramethyl-21,27-dioxa-1,6,34-triazahexacyclo[26.2.2.1^6,^9.1^10,^14.0^2,^7.0^15,^20]tetratriaconta-2,4,7,9(34),10(33),11,13,15(20),16,18-decaen-3-yl]acetic acid]",5.63
12,"Cc1ccc2c(c1)-c1cccc(c1)-c1cc3c(c([C@H](OC(C)(C)C)C(=O)O)c(C)cn3n1)N1CCC(C)(CC1)OCCCCC[C@@H](C)O2 (single isomer, unassigned) [Example 31]",6.59
13,"Cc1cn2nc(-c3ncc(Cc4ccc(F)cc4)s3)cc2c(N2CCC(C)(C)CC2)c1[C@H](OC(C)(C)C)C(=O)O [Example 4, (S)-2-(tert-Butoxy)-2-(4-(4,4-dimethylpiperidin-1-yl)-2-(5-(4-fluorobenzyl)thiazol-2-yl)-6-methylpyrazolo[1,5-a]pyridin-5-yl)acetic acid]",7.74
14,"Cc1cn2nc3cc2c(c1[C@H](OC(C)(C)C)C(=O)O)N1CCC(C)(CC1)OCCCC[C@H](C)Oc1ccc(C#N)cc1-c1cccc-3c1 [Example 42, (2S)-2-(tert-Butoxy)-2-[(22S)-17-cyano-4,22,28-trimethyl-21,27-dioxa-1,6,34-triazahexacyclo[26.2.2.1^6,^9.1^10,^14.0^2,^7.0^15,^20]tetratriaconta-2,4,7,9 (34),10(33),11,13,15(20),16,18-decaen-3-yl]acetic acid]",8.15
15,"C=CCOC1(C)CCN(c2c([C@H](OC(C)(C)C)C(=O)O)c(C)cn3nc(-c4cccc(Br)c4)cc23)CC1 [Example 28, (S)-2-(4-(4-(Allyloxy)-4-methylpiperidin-1-yl)-2-(3-bromophenyl)-6-methylpyrazolo[1,5-a]pyridin-5-yl)-2-(tert-butoxy)acetic acid]",6.86
16,"Cc1cn2nc3cc2c(c1[C@H](OC(C)(C)C)C(=O)O)N1CCC(C)(CC1)OCCCC[C@H](C)Oc1cc(F)ccc1-c1cccc-3c1 [Example 38, (2S)-2-(tert-Butoxy)-2-[(22S)-18-fluoro-4,22,28-trimethyl-21,27-dioxa-1,6,34-triazahexacyclo[26.2.2.1^6,^9.1^10,^14.0^2,^7.0^15,^20]tetratriaconta-2,4,7,9 (34),10(33),11,13,15 (20),16,18-decaen-3-yl]acetic acid]",7.52
17,"Cc1cc(CNC(=O)c2cc3c(-c4ccc5c6c(ccnc46)CCO5)c([C@H](OC(C)(C)C)C(=O)O)c(C)cn3n2)ccc1F (atropisomer, axis not shown) [Example 2, (2S)-2-(tert-Butoxy)-2-(4-(2,3-dihydropyrano[4,3,2-de]quinolin-7-yl)-2-((4-fluoro-3-methylbenzyl)carbamoyl)-6-methylpyrazolo[1,5-a]pyridin-5-yl)acetic acid]",7.20
18,Cc1cc(CNC(=O)c2cc3c(-c4cc(F)c5c(c4C)CCCO5)c([C@H](OC(C)(C)C)C(=O)O)c(C)cn3n2)ccc1F [Example 1],8.52
19,"Cc1cc(CNC(=O)c2cc3c(N4CCC(C)(C)CC4)c([C@H](OC(C)(C)C)C(=O)O)c(C)cn3n2)ccc1F [Example 3, (S)-2-(tert-Butoxy)-2-(4-(4,4-dimethylpiperidin-1-yl)-2-((4-fluoro-3-methylbenzyl)carbamoyl)-6-methylpyrazolo[1,5-a]pyridin-5-yl)acetic acid]",7.77
20,"Cc1cn2nc(-c3ncc(Cc4ccc(F)cc4)o3)cc2c(N2CCC(C)(C)CC2)c1[C@H](OC(C)(C)C)C(=O)O [Example 5, (S)-2-(tert-Butoxy)-2-(4-(4,4-dimethylpiperidin-1-yl)-2-(5-(4-fluorobenzyl)oxazol-2-yl)-6-methylpyrazolo[1,5-a]pyridin-5-yl)acetic acid]",8.30
21,"Cc1ccc2c(c1F)-c1cccc(c1)-c1cc3c(c([C@H](OC(C)(C)C)C(=O)O)c(C)cn3n1)N1CCC(C)(CC1)OCCCC[C@H](C)O2 [Example 39, (2S)-2-(tert-Butoxy)-2-[(22S)-16-fluoro-4,17,22,28-tetramethyl-21,27-dioxa-1,6,34-triazahexacyclo[26.2.2.1^6,^9.1^10,^14.0^2,^7.0^15,^20]tetratriaconta-2,4,7,9(34),10(33),11,13,15(20),16,18-decaen-3-yl]acetic acid]",7.42
22,"CCCOC1(C)CCN(c2c([C@H](OC(C)(C)C)C(=O)O)c(C)cn3nc(-c4cccc(-c5c(O[C@@H](C)CCC)ccc(C)c5F)c4)cc23)CC1 [Example 41, (2S)-2-(tert-Butoxy)-2-[2-(3-{2-fluoro-3-methyl-6-[(2S)-pentan-2-yloxy]phenyl}phenyl)-6-methyl-4-(4-methyl-4-propoxypiperidin-1-yl)pyrazolo[1,5-a]pyridin-5-yl]acetic acid]",6.14
23,"Cc1cn2nc3cc2c(c1[C@H](OC(C)(C)C)C(=O)O)N1CCC(C)(CC1)OCCC[C@H](C)Oc1ccc(F)cc1-c1cccc-3c1 [Example 37, (2S)-2-(tert-Butoxy)-2-[(22S)-17-fluoro-4,22,27-trimethyl-21,26-dioxa-1,6,33-triazahexacyclo[25.2.2.1^6,^9.1^10,^14.0^2,^7.0^15,^20]tritriaconta-2,4,7,9(33),10(32),11,13,15(20),16,18-decaen-3-yl]acetic acid]",7.54
